Laboratory results published in ChEMBL document CHEMBL1141099, “Discovery of N-(2,6-dimethylphenyl)-substituted semicarbazones as anticonvulsants: hybrid pharmacophore-based design” (2005).

Columns and labels:
Assay type in all cases: functional
[1] = system: Rattus norvegicus; assay: Number of rats protected at a dose of 30 mg/Kg when given oral at 1 hr upon maximal electroshock seizure; Total number of rats = 4
[2] = system: Rattus norvegicus; assay: Number of rats protected at a dose of 30 mg/Kg when given oral at 4 hr upon maximal electroshock seizure; Total number of rats = 4
[3] = system: Mus musculus; assay: Minimum dose required for anticonvulsant activity when given i.p., at 4 hr in mice upon maximal electroshock seizure
[4] = system: Mus musculus; assay: Minimum dose required for anticonvulsant activity when given i.p., at 2 hr in mice upon subcutaneous strychnine seizure
[5] = system: Mus musculus; assay: Minimum dose required for anticonvulsant activity when given i.p., at 0.5 hr in mice upon subcutaneous strychnine seizure
[6] = system: Rattus norvegicus; assay: Number of rats protected at a dose of 30 mg/Kg when given oral at 2 hr upon maximal electroshock seizure; Total number of rats = 4
[7] = system: Mus musculus; assay: Minimum dose required for anticonvulsant activity when given i.p., at 0.5 hr in mice upon maximal electroshock seizure
[8] = system: Rattus norvegicus; assay: Number of rats protected at a dose of 30 mg/Kg when given oral at 0.5 hr upon maximal electroshock seizure; Total number of rats = 4
[9] = system: Rattus norvegicus; assay: Number of rats protected at a dose of 30 mg/Kg when given oral at 0.25 hr upon maximal electroshock seizure; Total number of rats = 4
[10] = system: Mus musculus; assay: Minimum dose required for anticonvulsant activity when given i.p., at 0.5 hr in mice upon subcutaneous pentylenetetrazole seizure
[11] = system: Mus musculus; assay: Minimum dose required for anticonvulsant activity when given i.p., at 0.5 hr in mice upon neurotoxicity seizure using rotarod test

| Structure (SMILES) | Activity [1] | Activity [2] | MES [3] [mg/kg] | STY seizure [4] [mg/kg] | STY seizure [5] [mg/kg] | Activity [6] | MES [7] [mg/kg] | Activity [8] | Activity [9] | PTZ seizure [10] [mg/kg] | NT [11] [mg/kg] |
| --- | --- | --- | --- | --- | --- | --- | --- | --- | --- | --- | --- |
| C/C(CC(C)C)=N/NC(=O)Nc1c(C)cccc1C | 2 | 2 | 300 | 100 | 30 | 4 | 100 | 2 | 1 | – | – |
| C/C(=N\NC(=O)Nc1c(C)cccc1C)c1ccccc1O | 2 | 4 | 300 | 300 | 100 | 3 | 100 | 1 | 3 | 300 | – |
| Cc1cccc(C)c1NC(=O)NN=C(Cc1ccccc1)Cc1ccccc1 | 1 | 0 | 300 | – | 300 | 0 | 300 | 1 | 0 | – | 300 |
| Cc1cccc(C)c1NC(=O)N/N=C/c1ccccc1Cl | 1 | 4 | 300 | 100 | 30 | 1 | 100 | 1 | 2 | 300 | 300 |
| C/C(=N\NC(=O)Nc1c(C)cccc1C)c1ccccc1 | 4 | 3 | 300 | 100 | 30 | 3 | 100 | 2 | 1 | 300 | – |
| CC(C)=NNC(=O)Nc1c(C)cccc1C | 4 | 2 | 300 | 100 | 100 | 3 | 100 | 4 | 3 | 300 | 300 |
| Cc1cccc(C)c1NC(=O)NN=C1CCCCC1 | 2 | 3 | 300 | 300 | 100 | 4 | 100 | 1 | 1 | – | 300 |
| Cc1cccc(C)c1NC(=O)NN=C(c1ccccc1)c1ccccc1 | 1 | 0 | 300 | – | 300 | 1 | 100 | 1 | 1 | 300 | 300 |
| Cc1cccc(C)c1NC(=O)N/N=C\c1ccco1 | 1 | 3 | 300 | 300 | 100 | 4 | 100 | 2 | 0 | 300 | 300 |
| C/C(=N\NC(=O)Nc1c(C)cccc1C)c1cccc(N)c1 | 1 | 3 | 300 | 300 | 100 | 2 | 100 | 3 | 1 | – | 300 |
| Cc1cccc(C)c1NC(=O)NN=C1CCCC1 | 1 | 1 | 300 | – | – | 3 | 100 | 2 | 2 | 300 | 300 |
